# Results: article PMC4615937 (FEBS Open Bio, 2015)
# Substitutions are numbered along the chain they refer to.
# What was measured:
# Format in all cases: binding
# [1] = target: T1, wild-type mALAS2 (murine erythroid 5-aminolevulinate synthase) (Mus musculus, UniProt P08680); experiment: intrinsic protein fluorescence quenching titration
# T1 sequence (P08680 79-587): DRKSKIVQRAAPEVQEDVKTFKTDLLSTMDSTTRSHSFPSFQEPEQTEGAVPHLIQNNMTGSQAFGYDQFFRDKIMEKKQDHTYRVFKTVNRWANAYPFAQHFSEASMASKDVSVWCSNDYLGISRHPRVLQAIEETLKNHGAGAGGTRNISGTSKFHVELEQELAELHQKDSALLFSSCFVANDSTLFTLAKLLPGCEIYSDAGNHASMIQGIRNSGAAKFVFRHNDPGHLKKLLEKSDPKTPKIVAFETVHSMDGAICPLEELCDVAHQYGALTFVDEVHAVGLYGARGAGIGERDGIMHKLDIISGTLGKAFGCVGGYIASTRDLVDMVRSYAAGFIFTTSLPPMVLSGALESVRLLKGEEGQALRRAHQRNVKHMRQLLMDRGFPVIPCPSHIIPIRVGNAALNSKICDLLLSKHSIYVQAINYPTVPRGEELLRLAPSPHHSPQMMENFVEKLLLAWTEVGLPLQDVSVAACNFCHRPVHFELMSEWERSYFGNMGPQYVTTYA
# [2] = target: T2, wild-type mALAS2 (murine erythroid 5-aminolevulinate synthase) (Mus musculus, UniProt P08680, K299V); experiment: intrinsic protein fluorescence quenching titration
# T2 sequence (P08680 79-587 K299V): T1 sequence (P08680 79-587) with K221V
# [3] = target: T1, wild-type mALAS2 (murine erythroid 5-aminolevulinate synthase); conditions: half-maximal protection; 50 mM phosphate pH 7.5, 10% glycerol, 18 °C; no glycine
SMILES,Kd [1],Kd [2],K′ [3]
CC(C)(COP(=O)(O)OP(=O)(O)OC[C@H]1O[C@@H](n2cnc3c(N)ncnc32)[C@H](O)[C@@H]1OP(=O)(O)O)[C@@H](O)C(=O)NCCC(=O)NCCS [CoA],302 ± 12 µM,431 ± 17 µM,
CC(C)(COP(=O)(O)OP(=O)(O)OC[C@H]1O[C@@H](n2cnc3c(N)ncnc32)[C@H](O)[C@@H]1OP(=O)(O)O)[C@@H](O)C(=O)NCCC(=O)NCCSC(=O)CCC(=O)O [succinyl-CoA],297 ± 7 µM,223 ± 8 µM,261 ± 75 µM
